Assays:
[1] = system: Mycobacterium tuberculosis Erdman (autoluminescent); experiment: Einf, fitted maximum growth inhibition of combination (fraction); higher = stronger maximal inhibition
Method: (§1)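 DiaMOND equipotent two-drug combination dose responses against autoluminescent M. tuberculosis Erdman in 8 in vitro models. Read-out is OD600, or luminescence for the intracellular and dormancy models, normalised to untreated wells. Hill-fit Einf, AUC25 and GRinf are potency metrics; FIC50 and FIC90 are Loewe-additivity fractional inhibitory concentrations, given as log2 (negative = synergy). Replicates are averaged.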

[2] = system: Mycobacterium tuberculosis Erdman (autoluminescent); experiment: GRinf, maximum normalised growth rate inhibition (unitless (-1 to 1)); higher = less effect (negative = killing)
Method: as §1

[3] = system: Mycobacterium tuberculosis Erdman (autoluminescent); experiment: FIC90 (Loewe) at 90% inhibition (log2); higher = more antagonistic
Method: as §1

[4] = system: Mycobacterium tuberculosis Erdman (autoluminescent); experiment: FIC50 (Loewe) at 50% inhibition (log2); higher = more antagonistic
Method: as §1

[5] = system: Mycobacterium tuberculosis Erdman (autoluminescent); experiment: AUC25, normalised area under dose response up to IC25 (fraction (0-1)); higher = more potent at low dose
Method: as §1

CC[C@@H](CO)NCCN[C@@H](CC)CO [ethambutol] + COc1c(N2C[C@@H]3CCCN[C@@H]3C2)c(F)cc2c(=O)c(C(=O)O)cn(C3CC3)c12 [moxifloxacin]
Details	AUC25, [5]	Einf, [1]	FIC50, [4]	FIC90, [3]	GRinf, [2]
in vitro model: acidic pH 5.7, time point: constant (~7 days, model-specific)	0.0862	0.734	-0.277	–	-0.475
in vitro model: acidic pH 5.7, time point: terminal (~4-5 doublings, model-specific)	0.0741	0.954	0.597	0.0622	-0.293
in vitro model: intracellular J774, time point: constant = terminal	–	0.983	–	-1.25	-0.327

Details	AUC25, [5]	Einf, [1]	FIC50, [4]	FIC90, [3]	GRinf, [2]
in vitro model: butyrate, time point: constant (~7 days, model-specific)	0.0864	0.923	0.483	–	-0.00896
in vitro model: butyrate, time point: terminal (~4-5 doublings, model-specific)	0.0649	0.968	0.451	0.0888	-0.0343
in vitro model: cholesterol 0.05 mM, time point: constant (~7 days, model-specific)	0.0757	0.731	0.0661	–	-0.25
in vitro model: cholesterol 0.05 mM, time point: terminal (~4-5 doublings, model-specific)	0.0944	0.944	0.765	0.527	-0.264
in vitro model: cholesterol-high 0.2 mM, time point: constant (~7 days, model-specific)	0.0274	0.942	0.681	–	-0.404
in vitro model: cholesterol-high 0.2 mM, time point: terminal (~4-5 doublings, model-specific)	0.0429	0.999	0.886	0.669	-0.639
in vitro model: dormancy (butyrate + nitrate, low O2), time point: constant (~7 days, model-specific)	0.105	0.833	0.352	–	0.45
in vitro model: dormancy (butyrate + nitrate, low O2), time point: terminal (~4-5 doublings, model-specific)	0.0964	0.967	-0.052	0.0461	-0.155
in vitro model: standard 7H9 glycerol, time point: constant = terminal	0.066	0.975	0.0276	-0.116	-0.21
in vitro model: valerate, time point: constant (~7 days, model-specific)	0.0569	0.878	0.703	–	-0.0437
in vitro model: valerate, time point: terminal (~4-5 doublings, model-specific)	0.0611	0.955	0.344	-0.489	-0.0314

CC[C@@H](CO)NCCN[C@@H](CC)CO [ethambutol] + NC(=O)c1cnccn1 [pyrazinamide]
Details	AUC25, [5]	Einf, [1]	FIC50, [4]	FIC90, [3]	GRinf, [2]
in vitro model: acidic pH 5.7, time point: constant (~7 days, model-specific)	0.0998	0.866	-0.632	–	-0.453
in vitro model: acidic pH 5.7, time point: terminal (~4-5 doublings, model-specific)	0.0625	0.968	0.212	-0.791	-0.281
in vitro model: intracellular J774, time point: constant = terminal	–	0.994	–	-0.166	-0.569

Details	AUC25, [5]	Einf, [1]	FIC50, [4]	FIC90, [3]	GRinf, [2]
in vitro model: butyrate, time point: constant (~7 days, model-specific)	0.0986	0.866	0.466	–	0.133
in vitro model: butyrate, time point: terminal (~4-5 doublings, model-specific)	0.0883	0.817	0.636	–	-0.101
in vitro model: cholesterol 0.05 mM, time point: constant (~7 days, model-specific)	0.129	0.722	–	–	-0.326
in vitro model: cholesterol 0.05 mM, time point: terminal (~4-5 doublings, model-specific)	0.14	0.901	-0.0968	–	-0.224
in vitro model: cholesterol-high 0.2 mM, time point: constant (~7 days, model-specific)	0.0356	0.843	0.961	–	-0.204
in vitro model: cholesterol-high 0.2 mM, time point: terminal (~4-5 doublings, model-specific)	0.0539	0.999	0.865	0.821	-0.777
in vitro model: dormancy (butyrate + nitrate, low O2), time point: constant (~7 days, model-specific)	0.0925	0.813	-0.134	–	0.463
in vitro model: dormancy (butyrate + nitrate, low O2), time point: terminal (~4-5 doublings, model-specific)	0.085	0.945	0.32	-0.408	0.154
in vitro model: standard 7H9 glycerol, time point: constant = terminal	0.0625	0.873	0.18	–	0.0807
in vitro model: valerate, time point: constant (~7 days, model-specific)	0.0825	0.705	-0.152	–	0.281
in vitro model: valerate, time point: terminal (~4-5 doublings, model-specific)	0.0643	0.862	0.447	–	0.248

CC[C@@H](CO)NCCN[C@@H](CC)CO [ethambutol] + NNC(=O)c1ccncc1 [isoniazid]
Details	AUC25, [5]	Einf, [1]	FIC50, [4]	FIC90, [3]	GRinf, [2]
in vitro model: acidic pH 5.7, time point: constant (~7 days, model-specific)	0.134	0.693	1.2	–	-0.17
in vitro model: acidic pH 5.7, time point: terminal (~4-5 doublings, model-specific)	0.0706	0.919	0.67	0.229	0.00119
in vitro model: intracellular J774, time point: constant = terminal	–	1	–	-0.439	-0.332

Details	AUC25, [5]	Einf, [1]	FIC50, [4]	FIC90, [3]	GRinf, [2]
in vitro model: butyrate, time point: constant (~7 days, model-specific)	0.075	0.933	0.509	–	-0.0966
in vitro model: butyrate, time point: terminal (~4-5 doublings, model-specific)	0.0681	0.973	0.525	0.423	-0.109
in vitro model: cholesterol 0.05 mM, time point: constant (~7 days, model-specific)	0.0891	0.73	0.389	–	-0.157
in vitro model: cholesterol 0.05 mM, time point: terminal (~4-5 doublings, model-specific)	0.0491	0.862	0.82	–	-0.106
in vitro model: cholesterol-high 0.2 mM, time point: constant (~7 days, model-specific)	0.0277	0.905	0.561	–	-0.31
in vitro model: cholesterol-high 0.2 mM, time point: terminal (~4-5 doublings, model-specific)	0.0319	1	0.775	0.501	-0.731
in vitro model: dormancy (butyrate + nitrate, low O2), time point: constant (~7 days, model-specific)	0.104	0.818	-0.0762	–	0.454
in vitro model: dormancy (butyrate + nitrate, low O2), time point: terminal (~4-5 doublings, model-specific)	0.0973	0.964	-0.121	-0.0702	-0.0063
in vitro model: standard 7H9 glycerol, time point: constant = terminal	0.0635	0.92	0.483	0.426	0.0262
in vitro model: valerate, time point: constant (~7 days, model-specific)	0.111	0.897	0.108	–	0.0449
in vitro model: valerate, time point: terminal (~4-5 doublings, model-specific)	0.0612	0.935	0.332	0.345	0.0607

CC[C@@H](CO)NCCN[C@@H](CC)CO [ethambutol] + O=[N+]([O-])c1cn2c(n1)OC[C@@H](OCc1ccc(OC(F)(F)F)cc1)C2 [pretomanid]
Details	AUC25, [5]	Einf, [1]	FIC50, [4]	FIC90, [3]	GRinf, [2]
in vitro model: acidic pH 5.7, time point: constant (~7 days, model-specific)	0.113	0.847	0.0798	-1.11	-0.488
in vitro model: acidic pH 5.7, time point: terminal (~4-5 doublings, model-specific)	0.0826	0.978	0.568	0.214	-0.437
in vitro model: intracellular J774, time point: constant = terminal	–	0.977	–	-1.45	-0.403

Details	AUC25, [5]	Einf, [1]	FIC50, [4]	FIC90, [3]	GRinf, [2]
in vitro model: butyrate, time point: constant (~7 days, model-specific)	0.0746	0.924	0.254	–	0.00273
in vitro model: butyrate, time point: terminal (~4-5 doublings, model-specific)	0.0585	0.967	0.0549	-0.401	-0.0359
in vitro model: cholesterol 0.05 mM, time point: constant (~7 days, model-specific)	0.12	0.79	0.407	–	-0.319
in vitro model: cholesterol 0.05 mM, time point: terminal (~4-5 doublings, model-specific)	0.104	0.934	0.436	1.01	-0.25
in vitro model: cholesterol-high 0.2 mM, time point: constant (~7 days, model-specific)	0.0476	0.871	1.02	–	-0.159
in vitro model: cholesterol-high 0.2 mM, time point: terminal (~4-5 doublings, model-specific)	0.0356	0.99	0.975	1.06	-0.498
in vitro model: dormancy (butyrate + nitrate, low O2), time point: constant (~7 days, model-specific)	0.1	0.835	0.385	–	0.404
in vitro model: dormancy (butyrate + nitrate, low O2), time point: terminal (~4-5 doublings, model-specific)	0.112	0.968	0.00245	0.272	0.0288
in vitro model: standard 7H9 glycerol, time point: constant = terminal	0.076	0.958	0.211	-0.156	-0.109
in vitro model: valerate, time point: constant (~7 days, model-specific)	0.111	0.836	0.23	–	0.0201
in vitro model: valerate, time point: terminal (~4-5 doublings, model-specific)	0.0733	0.922	0.115	0.51	0.0884

Reference: the supplement of paper PMC8617591
